This passage reports IC50 results from patent US20250197406A1, “INDAZOLES AS HEMATOPOIETIC PROGENITOR KINASE 1 (HPK1) INHIBITORS AND METHODS FOR USING SAME” (1ST Biotherapeutics, Inc., priority 2022, published 2025).

Where a name gives a salt, the structure may show the parent alone. Some results are limits rather than exact numbers.

Chain of recombinant human HPK1 (Q92918 whole entry): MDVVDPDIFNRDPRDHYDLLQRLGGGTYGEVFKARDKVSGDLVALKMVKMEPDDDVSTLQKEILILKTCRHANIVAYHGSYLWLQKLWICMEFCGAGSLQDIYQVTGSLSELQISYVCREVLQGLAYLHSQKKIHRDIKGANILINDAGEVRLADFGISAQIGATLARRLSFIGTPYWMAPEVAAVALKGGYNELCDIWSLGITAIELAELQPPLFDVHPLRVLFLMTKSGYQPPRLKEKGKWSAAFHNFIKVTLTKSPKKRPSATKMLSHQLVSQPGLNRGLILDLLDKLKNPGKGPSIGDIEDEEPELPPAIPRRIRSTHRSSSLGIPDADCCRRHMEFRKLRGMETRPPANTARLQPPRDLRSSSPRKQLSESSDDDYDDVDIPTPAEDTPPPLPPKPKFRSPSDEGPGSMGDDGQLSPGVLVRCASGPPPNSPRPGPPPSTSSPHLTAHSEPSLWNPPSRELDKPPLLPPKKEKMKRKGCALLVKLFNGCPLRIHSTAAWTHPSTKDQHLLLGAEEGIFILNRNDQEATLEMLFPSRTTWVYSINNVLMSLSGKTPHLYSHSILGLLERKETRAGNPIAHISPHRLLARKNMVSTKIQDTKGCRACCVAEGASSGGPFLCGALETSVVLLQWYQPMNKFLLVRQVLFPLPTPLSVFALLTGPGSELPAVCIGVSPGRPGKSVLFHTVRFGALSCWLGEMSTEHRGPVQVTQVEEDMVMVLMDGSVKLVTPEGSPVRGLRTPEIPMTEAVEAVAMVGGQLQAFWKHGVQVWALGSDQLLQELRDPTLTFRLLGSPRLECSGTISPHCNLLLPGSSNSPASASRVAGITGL

This assay concerns the target recombinant human HPK1 (Homo sapiens (Human), UniProt Q92918). The experiment in a line: HPK1 kinase assay (Promega ADP-Glo kinase assay). The class given is biochemical. Particulars: In vitro activity against HPK1, 5 ng HPK1, MBP substrate, ATP 25 μM, 30° C. 40 minutes. In a few lines: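 IC50 was derived from percent inhibition across a range of compound concentrations. Recombinant human HPK1 (5 ng) phosphorylated MBP for 40 min at 30 °C in Tris buffer pH 7.5 with 20 mM MgCl2, with ATP added as a 25 µM solution and 0.5% DMSO. ADP formed was read by ADP-Glo luminescence.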
For orientation: IC50 means the midpoint of a concentration-inhibition curve. Turning to `CC(C)Nc1c(F)c(Cl)c(-c2cn3cc(NC(=O)C(C)(C)C)nc3cn2)c2cn[nH]c12` [Example 82, N-(6-(5-chloro-6-fluoro-7-(isopropylamino)-1H-indazol-4-yl)imidazo[1,2-a]pyrazin-2-yl)pivalamide], the IC50 lay within 101 to 500 nM.

Turning to `CC(=O)Nc1cn2cc(-c3c(C(F)(F)F)c(F)c(NC(C)C)c4[nH]ncc34)ncc2n1` [Example 83, N-(6-(6-fluoro-7-(isopropylamino)-5-(trifluoromethyl)-1H-indazol-4-yl)imidazo[1,2-a]pyrazin-2-yl)acetamide], the IC50 is below 100 nM. `CC(C)Nc1c(F)c(Cl)c(-c2cn3cc(NC(=O)N4CCOCC4)nc3cn2)c2cn[nH]c12` [Example 84, N-(6-(5-chloro-6-fluoro-7-(isopropylamino)-1H-indazol-4-yl)imidazo[1,2-a]pyrazin-2-yl)morpholine-4-carboxamide]: the IC50 was below 100 nM. `CC(CO)c1c(F)c(C(F)(F)F)c(-c2cn3cc(NC(=O)[C@@H]4C[C@@H]4F)nc3cn2)c2cn[nH]c12` (stereo partly drawn) [Example 85, (1S,2S)-2-fluoro-N-(6-(6-fluoro-7-(1-hydroxypropan-2-yl)-5-(trifluoromethyl)-1H-indazol-4-yl)imidazo[1,2-a]pyrazin-2-yl)cyclopropane-1-carboxamide]: the IC50 was below 100 nM. In the case of `CC(N[S+]([O-])C(C)(C)C)c1c(F)c(Cl)c(-c2cn3cc(NC(=O)[C@@H]4C[C@@H]4F)nc3cn2)c2cn[nH]c12` (stereo partly drawn) [Example 86, (1S,2S)-N-(6-(7-(1-((tert-butylsulfinyl)amino)ethyl)-5-chloro-6-fluoro-1H-indazol-4-yl)imidazo[1,2-a]pyrazin-2-yl)-2-fluorocyclopropane-1-carboxamide] it was below 100 nM. To `CC(N[S+]([O-])C(C)(C)C)c1c(F)c(C(F)(F)F)c(-c2cn3cc(NC(=O)[C@@H]4C[C@@H]4F)nc3cn2)c2cn[nH]c12` (stereo partly drawn) [Example 87, (1S,2S)-N-(6-(7-(1-((tert-butylsulfinyl)amino)ethyl)-6-fluoro-5-(trifluoromethyl)-1H-indazol-4-yl)imidazo[1,2-a]pyrazin-2-yl)-2-fluorocyclopropane-1-carboxamide] belongs below 100 nM. Consider `CC(C)Nc1c(F)c(Cl)c(-c2cn3cc(NC(=O)[C@@H]4C[C@@H]4C(F)F)nc3cn2)c2cn[nH]c12` [Example 88, (1R,2S)-N-(6-(5-chloro-6-fluoro-7-(isopropylamino)-1H-indazol-4-yl)imidazo[1,2-a]pyrazin-2-yl)-2-(difluoromethyl)cyclopropane-1-carboxamide], for which the IC50 is below 100 nM. In the case of `CC(C)Nc1c(F)c(Cl)c(-c2cn3cc(NC(=O)Cc4cccnc4)nc3cn2)c2cn[nH]c12` [Example 89, N-(6-(5-chloro-6-fluoro-7-(isopropylamino)-1H-indazol-4-yl)imidazo[1,2-a]pyrazin-2-yl)-2-(pyridin-3-yl)acetamide], the IC50 is below 100 nM.

Consider `CC(C)Nc1c(F)c(Cl)c(-c2cn3cc(NC(=O)CN4CCOCC4)nc3cn2)c2cn[nH]c12` [Example 90, N-(6-(5-chloro-6-fluoro-7-(isopropylamino)-1H-indazol-4-yl)imidazo[1,2-a]pyrazin-2-yl)-2-morpholinoacetamide], for which the IC50 was below 100 nM. With `CC(C)Nc1c(F)c(Cl)c(-c2cn3cc(N4CCOCC4)nc3cn2)c2cn[nH]c12` [Example 91, 5-chloro-6-fluoro-N-isopropyl-4-(2-morpholinoimidazo[1,2-a]pyrazin-6-yl)-1H-indazol-7-amine], the IC50 lay in the range of 501 to 1000 nM. Take `CC(C)Nc1c(F)c(Cl)c(-c2cn3cc(NC(=O)N4CCN(C)CC4)nc3cn2)c2cn[nH]c12` [Example 92, N-(6-(5-chloro-6-fluoro-7-(isopropylamino)-1H-indazol-4-yl)imidazo[1,2-a]pyrazin-2-yl)-4-methylpiperazine-1-carboxamide formate]: the IC50 was below 100 nM. In the case of `Cc1c(F)c(NC(C)C)c2[nH]ncc2c1-c1cn2cc(NC(=O)Cc3cccnc3)nc2cn1` [Example 93, N-(6-(6-fluoro-7-(isopropylamino)-5-methyl-1H-indazol-4-yl)imidazo[1,2-a]pyrazin-2-yl)-2-(pyridin-3-yl)acetamide], the IC50 is below 100 nM. Consider `CC(C)Nc1c(F)c(Cl)c(-c2cn3cc(NC(=O)[C@@H]4C[C@@H]4CF)nc3cn2)c2cn[nH]c12` [Example 94, (1R,2S)-N-(6-(5-chloro-6-fluoro-7-(isopropylamino)-1H-indazol-4-yl)imidazo[1,2-a]pyrazin-2-yl)-2-(fluoromethyl)cyclopropane-1-carboxamide], for which the IC50 was below 100 nM. For the compound `CC(C)Nc1c(F)c(Cl)c(-c2cn3cc(NC(=O)OC(C)C)nc3cn2)c2cn[nH]c12` [Example 95, isopropyl (6-(5-chloro-6-fluoro-7-(isopropylamino)-1H-indazol-4-yl)imidazo[1,2-a]pyrazin-2-yl)carbamate], the IC50 is below 100 nM. For the compound `CC(NC=O)c1c(F)c(C(F)(F)F)c(-c2cn3cc(NC(=O)[C@@H]4C[C@@H]4F)nc3cn2)c2cn[nH]c12` (stereo partly drawn) [Example 96, (1S,2S)-2-fluoro-N-(6-(6-fluoro-7-(1-formamidoethyl)-5-(trifluoromethyl)-1H-indazol-4-yl)imidazo[1,2-a]pyrazin-2-yl)cyclopropane-1-carboxamide], the IC50 is below 100 nM. For the compound `CC(C)(C)[S+]([O-])NC(c1c(F)c(C(F)(F)F)c(-c2cn3cc(NC(=O)[C@@H]4C[C@@H]4F)nc3cn2)c2cn[nH]c12)C1CC1` (stereo partly drawn) [Example 97, (1S,2S)-N-(6-(7-(((tert-butylsulfinyl)amino)(cyclopropyl)methyl)-6-fluoro-5-(trifluoromethyl)-1H-indazol-4-yl)imidazo[1,2-a]pyrazin-2-yl)-2-fluorocyclopropane-1-carboxamide], the IC50 is below 100 nM.

With `CC(CN)c1c(F)c(C(F)(F)F)c(-c2cn3cc(NC(=O)[C@@H]4C[C@@H]4F)nc3cn2)c2cn[nH]c12` (stereo partly drawn) [Example 98, (1S,2S)-N-(6-(7-(1-aminopropan-2-yl)-6-fluoro-5-(trifluoromethyl)-1H-indazol-4-yl)imidazo[1,2-a]pyrazin-2-yl)-2-fluorocyclopropane-1-carboxamide formate], the IC50 is below 100 nM. As to `CC(=O)NCC(C)c1c(F)c(C(F)(F)F)c(-c2cn3cc(NC(=O)[C@@H]4C[C@@H]4F)nc3cn2)c2cn[nH]c12` (stereo partly drawn) [Example 99, (1S,2S)-N-(6-(7-(1-acetamidopropan-2-yl)-6-fluoro-5-(trifluoromethyl)-1H-indazol-4-yl)imidazo[1,2-a]pyrazin-2-yl)-2-fluorocyclopropane-1-carboxamide], the IC50 was below 100 nM. Regarding `CSCC(=O)Nc1cn2cc(-c3c(Cl)c(F)c(NC(C)C)c4[nH]ncc34)ncc2n1` [Example 100, N-(6-(5-chloro-6-fluoro-7-(isopropylamino)-1H-indazol-4-yl)imidazo[1,2-a]pyrazin-2-yl)-2-(methylthio)acetamide], the IC50 is below 100 nM. `CC(C)Nc1c(F)c(Cl)c(-c2cn3cc(NC4CCOC4)nc3cn2)c2cn[nH]c12` (stereo not drawn) [Example 101, 6-(5-chloro-6-fluoro-7-(isopropylamino)-1H-indazol-4-yl)-N-(tetrahydrofuran-3-yl)imidazo[1,2-a]pyrazin-2-amine]: the IC50 is 101 to 500 nM. For `CC(=O)N(C)c1cn2cc(-c3c(Cl)c(F)c(NC(C)C)c4[nH]ncc34)ncc2n1` [Example 102, N-(6-(5-chloro-6-fluoro-7-(isopropylamino)-1H-indazol-4-yl)imidazo[1,2-a]pyrazin-2-yl)-N-methylacetamide], the IC50 was in the range of 501 to 1000 nM.
